Results from US10202386B2, “Pyrrolo[3,2-D]pyrimidine derivatives as inducers of human interferon” (GlaxoSmithKline Intellectual Property (No.2) Limited, priority 2014, dated 2019).
Where a name gives a salt, the structure may show the parent alone.

Columns and labels:
Assay type in all cases: cell-based
TNF-α [1] = test: Induction of TNF-α using fresh human whole blood (WB); details: three donors, overnight incubation, response as % of 2 μM resiquimod control, read-out: mean pEC50 for TNF-α (converted)
Description: (§1) Assay for the Induction of Interferon-α and TNF-α Using Fresh Human Whole Blood (WB)
(§2) Compounds were prepared at 100× required concentration in DMSO in flat-bottom microtitre plates at a volume of 1.5 μL. Columns 1-10 contained a 1 in 4 serial dilution of the test compound. Included on each plate was a serial dilution of the TLR7/8 agonist resiquimod as a standard and Column 11 contained 1.5 μl of 200 μM resiquimod (giving a 2 μM final concentration, used to define the approximate maximal response to resiquimod). Each compound was assayed in duplicate for each donor.
(§3) Blood samples from three human donors were collected into sodium heparin (10 U/ml). 150 μl of whole Blood was dispensed into Col 1 to 11 of assay plates containing 1.5 μl of test compound or standard in DMSO. Plates were placed in an incubator overnight (37° C., 95% air, 5% CO2). Following the overnight incubation, plates were removed from the incubator & mixed on an orbital shaker for approximately 1 minute. 100 μl of 0.9% saline was added to each well and the plates mixed again on an orbital shaker. Plates were then centrifuged (2500 rpm, 10 mins), after which a sample of plasma was removed using a Biomek FX and assayed for both IFN-α and TNF-α using the MSD (Mesoscale Discovery) electrochemiluminescence assay platform. The IFN-α assay was carried out similarly to that described above. The TNF-α assay was carried out as per kit instructions (Cat No K111BHB).
(§4) Cytokine released was expressed as a percentage of the 2 μM resiquimod control (column 11). This percentage was plotted against compound concentration and the pEC50 for the response determined by non-linear least squares curve fitting. For the IFN-α responses, generally a 4 parameter logistic model was selected. For the TNF-α responses where a clear maximum response was obtained (i.e. a well defined plateau in the response was observed) then a 4 parameter model was generally used. If the upper asymptote of the curve wasn't well defined then the curve fitting was generally constrained to a maximal response of 100% (i.e. to the response to 2 μM resiquimod) or to the response of the highest concentration tested if this was greater than the resiquimod response. Some curves were bell shaped for one or both cytokines and the cytokine data on the down slope of the bell shaped response (i.e. concentrations above those giving the maximal response) were generally excluded from the fit, usually with the exception of the concentration immediately above the peak response. Curve fitting thus concentrated on the up slope of the dose response curve.

IFN-α [2] = test: Induction of Interferon-α using fresh human whole blood (WB); details: three donors, overnight incubation, response as % of 2 μM resiquimod control, read-out: mean pEC50 for IFN-α (converted)
Description: as §1, §2, §3, §4

TNF-α [3] = test: Induction of TNF-α using fresh human peripheral blood mononuclear cells (PBMCs); details: PBMC, three donors, 24 hr incubation, response as % of 2 μM resiquimod control, read-out: mean pEC50 for TNF-α (converted)
Description: (§5) Assay for the Induction of Interferon-α and TNF-α Using Fresh Human Peripheral Blood Mononuclear Cells (PBMCs)
(§6) Compounds were dispensed by at 100× the required concentration in DMSO (1 uL/well in a flat bottom 96-well cell culture plate). Each compound was assayed in duplicate for each donor. Each plate contained a dilution series of the TLR7/8 agonist resiquimod as standard and Column 11 contained 1 μL of 200 μM resiquimod (giving a 2 μM final concentration, used to define the approximate maximal response to resiquimod).
(§7) Blood samples from three human donors were collected into sodium heparin (10 U/ml). 25 mL volumes of whole blood were overlaid onto 15 mL Histopaque in Leucosep tubes which were centrifuged at 400 g for 30 min and the band at the plasma/histopaque interface carefully removed into a sterile 50 mL conical tube. The volume in the tube was made up to 50 mL with sterile DPBS (Dulbecco's phosphate buffered saline, —CaCl2/MgCl2) and centrifuged at 300 g for 10 min. The cell pellet was resuspended in 20 mL of media (RPMI 1640 (Low endotoxin) supplemented with 10% v/v foetal calf serum (FCS, low endotoxin) 100 U/mL penicillin G, 100 μg/mL streptomycin, 10 mM L-glutamine and 1× non-essential amino acids), and the cells counted using the Nucleoview 3000 (Chemometec, Via-1 Cassette). The PBMCs concentration was adjusted to give a final concentration of 2×10^6/mL and 100 uL of this cells suspension was added to wells containing 1 μL of diluted test compound.
(§8) The cell preparations were incubated for 24 hr (37° C., 95% air, 5% CO2) after which a sample of the supernatant was removed using the Biomek FX and assayed for both IFN-α and TNF-α using the MSD (Mesoscale Discovery) electrochemiluminescence assay platform. The IFN-α assay was carried out similarly to that described above. The TNF-α assay was carried out as per kit instructions (Cat No K111BHB).
as §4, with “responses” for “responses,”

IFN-α [4] = test: Induction of Interferon-α using fresh human peripheral blood mononuclear cells (PBMCs); details: PBMC, three donors, 24 hr incubation, response as % of 2 μM resiquimod control, read-out: mean pEC50 for IFN-α (converted)
Description: as §5, §6, §7, §8
as §4, with “responses” for “responses,”

SMILES	EC50 (TNF-α [1])	EC50 (IFN-α [2])	EC50 (TNF-α [3])	EC50 (IFN-α [4])
Cc1nc(N)c2[nH]c(C)c(CCCCCCN3CCCCC3)c2n1 [Example 1, 2,6-Dimethyl-7-(6-(piperidin-1-yl)hexyl)-5H-pyrrolo[3,2-d]pyrimidin-4-amine]	≥ 50.1 µM	≥ 2 µM	≥ 50.1 µM	0.501 to 3.98 µM
Cc1nc(N)c2[nH]c(C)c(CCCCCN3CCCC3)c2n1 [Example 2, 2,6-Dimethyl-7-(5-(pyrrolidin-1-yl)pentyl)-5H-pyrrolo[3,2-d]pyrimidin-4-amine maleate]	≥ 50.1 µM	≥ 2 µM	≥ 50.1 µM	0.501 to 3.98 µM
Cc1nc(N)c2[nH]c(C)c(CCCCCN(CCO)CCO)c2n1 [Example 3, 2,2′-((5-(4-Amino-2,6-dimethyl-5H-pyrrolo[3,2-d]pyrimidin-7-yl)pentyl)azanediyl)diethanol formate]	≥ 50.1 µM	≥ 2 µM	≥ 50.1 µM	0.501 to 3.98 µM
COCCN(CCO)CCCCCCc1c(C)[nH]c2c(N)nc(C)nc12 [Example 5, 2-((6-(4-Amino-2,6-dimethyl-5H-pyrrolo[3,2-d]pyrimidin-7-yl)hexyl)(2-methoxyethyl)amino)ethanol]	≥ 50.1 µM	≥ 2 µM	≥ 50.1 µM	0.501 to 3.98 µM
COCCN(CCCCCCc1c(C)[nH]c2c(N)nc(C)nc12)CCOC [Example 6, 7-(6-(bis(2-Methoxyethyl)amino)hexyl)-2,6-dimethyl-5H-pyrrolo[3,2-d]pyrimidin-4-amine]	≥ 50.1 µM	≥ 2 µM	≥ 50.1 µM	0.501 to 3.98 µM
Cc1nc(N)c2[nH]c(C)c(CCCCCCN3C[C@H](O)C[C@H](O)C3)c2n1 [Example 8, (3R,5S)-1-(6-(4-amino-2,6-dimethyl-5H-pyrrolo[3,2-d]pyrimidin-7-yl)hexyl)piperidine-3,5-diol]	≥ 50.1 µM	≥ 2 µM	≥ 50.1 µM	0.501 to 3.98 µM
Cc1nc(N)c2[nH]c(C)c(CCCCCCN3C[C@H](O)C[C@@H](O)C3)c2n1 [Example 9, (3R,5R)-1-(6-(4-Amino-2,6-dimethyl-5H-pyrrolo[3,2-d]pyrimidin-7-yl)hexyl)piperidine-3,5-diol]	≥ 50.1 µM	≥ 2 µM	≥ 50.1 µM	0.501 to 3.98 µM

Further lines, results first:

EC50 (TNF-α [1])	EC50 (IFN-α [2])	EC50 (TNF-α [3])	EC50 (IFN-α [4])	SMILES
≥ 50.1 µM	≥ 2 µM	≥ 50.1 µM	0.501 to 3.98 µM	Cc1nc(N)c2[nH]c(C)c(CCCCCCN(CCO)CCO)c2n1 [Example 4, 2,2′-((6-(4-Amino-2,6-dimethyl-5H-pyrrolo[3,2-d]pyrimidin-7-yl)hexyl)azanediyl)diethanol formate]
≥ 50.1 µM	≥ 2 µM	≥ 50.1 µM	0.501 to 3.98 µM	Cc1nc(N)c2[nH]c(C)c(CCCCCCNCCO)c2n1 [Example 7, 2-((6-(4-Amino-2,6-dimethyl-5H-pyrrolo[3,2-d]pyrimidin-7-yl)hexyl)amino)ethanol]
≥ 50.1 µM	≥ 2 µM			Cc1nc(N)c2[nH]c(C)c(CCCCCCN(C)C)c2n1 [Example 10, 7-(6-(Dimethylamino)hexyl)-2,6-dimethyl-5H-pyrrolo[3,2-]pyrimidin-4-amine]
